What was measured:
Class I HDACs and HDAC6 = settings: Bradner et al. 2010; cited from earlier work
[1] = system: proinflammatory cytokines; settings: Leoni et al. 2002, 2005; cited from earlier work
IL-1β = settings: Carta et al. 2006; cited from earlier work
HDAC4 = biological target: T1, HDAC4 (Homo sapiens, UniProt P56524); assay: Kinetic HDAC enzyme inhibition assay, HDAC4; assay type: biochemical; settings: recombinant HDAC
T1 construct: purchased BPS Biosciencies (San Diego, Calif.)
Experimental: (§1) HDAC inhibitory activity of the compounds described in Table 1 is measured using a kinetic HDAC assay. Recombinant HDACs are obtained from BPS Biosciencies (San Diego, Calif.). […] Fluorescence measurements are obtained approximately once per minute using a multilabel plate reader. Data were analyzed using GraphPad Prism.

HDAC7 = biological target: T2, HDAC7 (Homo sapiens, UniProt Q8WUI4); assay: Kinetic HDAC enzyme inhibition assay, HDAC7; assay type: biochemical; settings: recombinant HDAC
T2 construct: purchased BPS Biosciencies (San Diego, Calif.)
T2 sequence (Q8WUI4 1-952): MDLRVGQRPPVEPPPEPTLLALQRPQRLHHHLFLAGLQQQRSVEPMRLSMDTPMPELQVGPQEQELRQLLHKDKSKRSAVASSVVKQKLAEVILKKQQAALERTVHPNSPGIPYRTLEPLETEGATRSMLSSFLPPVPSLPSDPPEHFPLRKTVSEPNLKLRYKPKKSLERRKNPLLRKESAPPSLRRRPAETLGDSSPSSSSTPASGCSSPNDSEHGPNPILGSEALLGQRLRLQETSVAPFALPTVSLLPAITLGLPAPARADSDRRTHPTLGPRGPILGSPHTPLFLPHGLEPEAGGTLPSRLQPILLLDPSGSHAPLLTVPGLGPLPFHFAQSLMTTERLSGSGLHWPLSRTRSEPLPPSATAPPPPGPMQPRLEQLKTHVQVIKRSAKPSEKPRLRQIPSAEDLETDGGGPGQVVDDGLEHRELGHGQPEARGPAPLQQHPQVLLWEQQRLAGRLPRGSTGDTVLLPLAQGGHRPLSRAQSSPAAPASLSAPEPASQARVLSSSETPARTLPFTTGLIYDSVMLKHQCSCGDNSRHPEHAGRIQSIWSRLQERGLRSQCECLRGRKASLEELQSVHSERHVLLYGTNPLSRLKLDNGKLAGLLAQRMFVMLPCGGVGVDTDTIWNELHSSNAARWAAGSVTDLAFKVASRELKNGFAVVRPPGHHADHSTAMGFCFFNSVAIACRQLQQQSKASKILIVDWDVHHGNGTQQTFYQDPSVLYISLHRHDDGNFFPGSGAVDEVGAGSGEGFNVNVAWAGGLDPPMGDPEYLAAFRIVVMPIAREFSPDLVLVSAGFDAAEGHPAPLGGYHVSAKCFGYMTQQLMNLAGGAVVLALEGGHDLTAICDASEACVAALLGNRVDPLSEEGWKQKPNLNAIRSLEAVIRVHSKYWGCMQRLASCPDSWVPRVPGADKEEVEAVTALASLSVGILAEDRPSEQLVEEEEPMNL
Experimental: as §1

HDAC1 = biological target: T3, HDAC1 (Homo sapiens, UniProt Q13547); assay: Kinetic HDAC enzyme inhibition assay, HDAC1; assay type: biochemical; settings: recombinant HDAC
T3 construct: purchased BPS Biosciencies (San Diego, Calif.)
Experimental: as §1

HDAC2 = biological target: T4, HDAC2 (Homo sapiens, UniProt Q92769); assay: Kinetic HDAC enzyme inhibition assay, HDAC2; assay type: biochemical; settings: recombinant HDAC
T4 construct: purchased BPS Biosciencies (San Diego, Calif.)
Experimental: as §1

HDAC5 = biological target: T5, HDAC5 (Homo sapiens, UniProt Q9UQL6); assay: Kinetic HDAC enzyme inhibition assay, HDAC5; assay type: biochemical; settings: recombinant HDAC
T5 construct: purchased BPS Biosciencies (San Diego, Calif.)
Experimental: as §1

HDAC9 = biological target: T6, HDAC9 (Homo sapiens, UniProt Q9UKV0); assay: Kinetic HDAC enzyme inhibition assay, HDAC9; assay type: biochemical; settings: recombinant HDAC
T6 construct: purchased BPS Biosciencies (San Diego, Calif.)
Experimental: as §1

[2] = system: collagen induced arthritis; assay: Collagen induced arthritis in mice; assay type: in vivo, male DBA/1OlaHsd mice; settings: 30 mg/kg twice daily injection from Day 18
Experimental: To test these two HDAC6 inhibitors in an animal model of a chronic inflammatory disease a mouse collagen induced arthritis in a semi-therapeutic mode is used. In this study male DBA/1OlaHsd mice, 6 weeks old, are anesthetized with Isoflurane and given 150 μL Type II collagen in Freund's complete adjuvant on Day 0 and Day 21. Treatment with compound is initiated on Day 18. The mice in the treatment groups are injected twice daily with 30 mg/kg of compound in 10% DMSO/10% Solutol HS15/80% 0.9% saline. […] Inflammation in the joints is measured daily and a disease score is calculated based on paw thickness.

human PBMCs = assay: LPS induced cytokine release from PBMCs; assay type: cell-based; settings: 1 μM compound, 0.5 ng/ml LPS overnight
Experimental: Whole blood from three anonymous donors is collected in vacutainer tubes with sodium heparin as an anti-coagulant (Research Blood Components, Brighton, Mass.). A total volume of 30 ml of blood is diluted and layered over Ficoll-Paque Plus (GE Life Sciences) and centrifuged at 400×g for 30 minutes. The peripheral blood mononuclear cell (PBMC) fraction is removed from the interface of plasma and Ficoll and washed once with PBS.
Cells are seeded in 24 well plates at a density of 400,000 cells per well.
After the overnight stimulation the plates are centrifuged at 200×g for 5 minutes. The supernatant is removed and a small aliquot is reserved for determination of TNFα levels by ELISA (R&D Systems, catalog number STA00C). The remainder of the supernatant is frozen at −80° C. and sent to Millipore Bioscience Division (St. Charles, Mo.) for multiplex cytokine analysis.

[3] = system: RAW264.7 mouse macrophages; assay: TNFα protein and mRNA in LPS stimulated RAW264.7 macrophages; assay type: cell-based; settings: 10 ng/ml LPS, two hours; for TNFα protein level in supernatant: ELISA; for TNFα mRNA level: RT-PCR relative to GAPDH
Experimental: The cells are stimulated with 10 ng/ml LPS and incubated for two hours. The cell supernatants are collected and assayed for the level of TNFα by ELISA. The cells are harvested and mRNA purified using an RNEasy kit from Qiagen. The level of TNFα mRNA is determined by RT-PCR using a StepOne Plus real time PCR machine. The change in the relative level of TNFα mRNA as compared to the level of GAPDH mRNA is plotted, along with the concentration of TNFα protein in the supernatant (see FIG. 4).

T1 sequence (P56524 whole entry): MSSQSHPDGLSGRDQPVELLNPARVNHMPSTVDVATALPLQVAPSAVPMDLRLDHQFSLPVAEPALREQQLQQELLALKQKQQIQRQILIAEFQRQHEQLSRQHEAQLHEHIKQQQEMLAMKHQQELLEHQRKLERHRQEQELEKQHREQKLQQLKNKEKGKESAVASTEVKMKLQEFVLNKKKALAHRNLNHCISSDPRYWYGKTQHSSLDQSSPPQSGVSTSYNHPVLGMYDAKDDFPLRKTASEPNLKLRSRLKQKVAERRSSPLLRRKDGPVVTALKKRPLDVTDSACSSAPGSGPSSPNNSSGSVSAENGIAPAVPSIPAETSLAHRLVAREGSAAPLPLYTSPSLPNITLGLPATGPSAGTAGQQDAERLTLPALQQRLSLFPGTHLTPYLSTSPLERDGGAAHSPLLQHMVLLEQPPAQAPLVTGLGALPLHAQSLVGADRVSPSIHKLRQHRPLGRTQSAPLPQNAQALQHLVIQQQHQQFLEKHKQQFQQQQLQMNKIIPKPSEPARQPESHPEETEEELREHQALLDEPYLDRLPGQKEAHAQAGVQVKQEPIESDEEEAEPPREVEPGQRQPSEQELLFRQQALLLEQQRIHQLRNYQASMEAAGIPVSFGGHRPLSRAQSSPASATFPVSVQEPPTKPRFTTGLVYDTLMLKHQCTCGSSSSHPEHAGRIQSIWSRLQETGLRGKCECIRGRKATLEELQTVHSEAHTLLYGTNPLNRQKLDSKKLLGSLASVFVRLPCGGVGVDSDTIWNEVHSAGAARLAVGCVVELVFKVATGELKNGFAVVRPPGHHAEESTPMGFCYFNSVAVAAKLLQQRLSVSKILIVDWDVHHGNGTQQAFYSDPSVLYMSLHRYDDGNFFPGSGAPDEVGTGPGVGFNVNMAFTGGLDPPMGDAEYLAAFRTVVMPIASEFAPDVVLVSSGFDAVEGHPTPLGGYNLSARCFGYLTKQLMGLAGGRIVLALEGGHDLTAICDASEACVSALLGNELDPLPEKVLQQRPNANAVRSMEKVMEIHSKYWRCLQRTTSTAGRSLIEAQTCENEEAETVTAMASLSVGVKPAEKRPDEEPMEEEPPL
T6 sequence (Q9UKV0 whole entry): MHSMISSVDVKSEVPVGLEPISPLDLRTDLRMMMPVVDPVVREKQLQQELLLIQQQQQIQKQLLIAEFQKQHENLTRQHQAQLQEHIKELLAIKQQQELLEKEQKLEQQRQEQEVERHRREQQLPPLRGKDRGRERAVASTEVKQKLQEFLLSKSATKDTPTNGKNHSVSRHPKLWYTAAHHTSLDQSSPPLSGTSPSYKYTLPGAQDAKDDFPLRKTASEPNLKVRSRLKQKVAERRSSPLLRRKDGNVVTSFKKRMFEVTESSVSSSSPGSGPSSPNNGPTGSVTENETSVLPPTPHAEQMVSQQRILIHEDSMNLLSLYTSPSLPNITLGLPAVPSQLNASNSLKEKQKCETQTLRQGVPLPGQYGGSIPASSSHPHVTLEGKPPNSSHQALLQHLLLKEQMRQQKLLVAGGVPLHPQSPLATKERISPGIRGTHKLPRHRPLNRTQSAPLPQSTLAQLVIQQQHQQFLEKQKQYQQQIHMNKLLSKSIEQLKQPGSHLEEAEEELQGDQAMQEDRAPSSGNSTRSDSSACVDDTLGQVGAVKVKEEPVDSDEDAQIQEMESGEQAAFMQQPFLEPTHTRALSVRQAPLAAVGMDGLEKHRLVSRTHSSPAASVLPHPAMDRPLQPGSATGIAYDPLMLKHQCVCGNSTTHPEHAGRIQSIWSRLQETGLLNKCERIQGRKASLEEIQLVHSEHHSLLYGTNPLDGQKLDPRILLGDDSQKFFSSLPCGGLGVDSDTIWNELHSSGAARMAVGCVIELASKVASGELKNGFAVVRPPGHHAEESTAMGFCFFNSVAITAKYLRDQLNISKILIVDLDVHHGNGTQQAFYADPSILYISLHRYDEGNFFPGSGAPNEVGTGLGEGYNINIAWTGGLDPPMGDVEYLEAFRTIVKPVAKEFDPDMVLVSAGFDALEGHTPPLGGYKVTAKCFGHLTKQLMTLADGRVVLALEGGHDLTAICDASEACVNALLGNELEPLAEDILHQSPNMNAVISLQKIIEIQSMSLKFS
T4 sequence (Q92769 whole entry): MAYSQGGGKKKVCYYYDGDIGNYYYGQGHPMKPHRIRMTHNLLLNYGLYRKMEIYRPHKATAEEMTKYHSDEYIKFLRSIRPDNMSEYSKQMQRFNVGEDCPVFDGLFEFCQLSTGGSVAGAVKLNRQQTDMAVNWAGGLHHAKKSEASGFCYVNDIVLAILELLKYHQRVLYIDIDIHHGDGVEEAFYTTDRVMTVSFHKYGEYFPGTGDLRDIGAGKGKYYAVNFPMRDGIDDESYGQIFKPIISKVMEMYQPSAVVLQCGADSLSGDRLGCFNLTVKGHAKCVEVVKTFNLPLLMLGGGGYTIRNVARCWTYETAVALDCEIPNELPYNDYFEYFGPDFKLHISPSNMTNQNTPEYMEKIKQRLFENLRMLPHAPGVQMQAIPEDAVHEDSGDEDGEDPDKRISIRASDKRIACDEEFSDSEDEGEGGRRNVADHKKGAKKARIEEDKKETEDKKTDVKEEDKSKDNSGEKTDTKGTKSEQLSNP
T3 sequence (Q13547 whole entry): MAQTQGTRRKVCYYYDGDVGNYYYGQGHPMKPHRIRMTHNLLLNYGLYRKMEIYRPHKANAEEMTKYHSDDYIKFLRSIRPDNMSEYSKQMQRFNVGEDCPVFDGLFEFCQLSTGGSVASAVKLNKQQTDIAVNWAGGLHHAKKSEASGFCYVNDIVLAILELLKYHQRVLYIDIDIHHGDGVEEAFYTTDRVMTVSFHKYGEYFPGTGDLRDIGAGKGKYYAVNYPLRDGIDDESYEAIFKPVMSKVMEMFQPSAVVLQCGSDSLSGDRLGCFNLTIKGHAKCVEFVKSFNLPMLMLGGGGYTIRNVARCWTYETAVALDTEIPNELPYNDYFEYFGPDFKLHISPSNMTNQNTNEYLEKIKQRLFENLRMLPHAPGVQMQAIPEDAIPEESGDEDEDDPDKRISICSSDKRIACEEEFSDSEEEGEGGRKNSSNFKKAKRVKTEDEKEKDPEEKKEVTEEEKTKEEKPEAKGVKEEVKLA
T5 sequence (Q9UQL6 whole entry): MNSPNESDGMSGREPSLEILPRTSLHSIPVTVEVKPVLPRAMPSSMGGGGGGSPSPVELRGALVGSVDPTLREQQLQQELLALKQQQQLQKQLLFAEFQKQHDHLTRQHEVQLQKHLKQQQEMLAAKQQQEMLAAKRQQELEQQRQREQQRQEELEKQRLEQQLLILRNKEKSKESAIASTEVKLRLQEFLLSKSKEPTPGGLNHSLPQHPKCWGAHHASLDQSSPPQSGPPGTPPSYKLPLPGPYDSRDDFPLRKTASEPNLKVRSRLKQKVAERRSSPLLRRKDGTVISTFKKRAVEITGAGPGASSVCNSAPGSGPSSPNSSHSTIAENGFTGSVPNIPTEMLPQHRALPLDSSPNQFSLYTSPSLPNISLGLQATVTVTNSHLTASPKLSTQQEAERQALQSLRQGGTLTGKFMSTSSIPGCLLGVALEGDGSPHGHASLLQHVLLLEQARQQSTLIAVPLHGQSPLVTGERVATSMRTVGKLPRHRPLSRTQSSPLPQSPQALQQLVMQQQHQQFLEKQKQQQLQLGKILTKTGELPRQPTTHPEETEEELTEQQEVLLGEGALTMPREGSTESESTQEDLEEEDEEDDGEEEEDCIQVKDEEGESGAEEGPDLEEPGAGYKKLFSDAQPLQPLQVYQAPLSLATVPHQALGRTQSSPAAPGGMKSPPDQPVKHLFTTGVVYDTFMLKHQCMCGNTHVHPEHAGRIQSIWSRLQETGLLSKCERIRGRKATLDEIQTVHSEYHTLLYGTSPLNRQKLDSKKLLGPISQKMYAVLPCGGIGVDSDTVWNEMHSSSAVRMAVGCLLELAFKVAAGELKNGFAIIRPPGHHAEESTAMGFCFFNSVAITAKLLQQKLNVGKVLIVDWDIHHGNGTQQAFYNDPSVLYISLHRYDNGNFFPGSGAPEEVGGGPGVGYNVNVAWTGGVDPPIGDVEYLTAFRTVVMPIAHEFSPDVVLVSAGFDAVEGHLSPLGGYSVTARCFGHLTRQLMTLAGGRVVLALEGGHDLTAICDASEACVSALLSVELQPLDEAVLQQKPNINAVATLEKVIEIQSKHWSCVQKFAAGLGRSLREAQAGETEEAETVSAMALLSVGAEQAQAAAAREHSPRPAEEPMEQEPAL

IC50 (HDAC4)	IC50 (HDAC7)	IC50 (HDAC1)	IC50 (HDAC2)	IC50 (HDAC5)	IC50 (HDAC9)	Structure (SMILES)	Level of synthesis or intracellular localization of the precursors of IL-1β (IL-1β)	Secretion of mature IL-1β (IL-1β)	Number of LPS induced cytokines decreased (of eight) (human PBMCs)	further results
						CCN(CC)Cc1ccc2cc(COC(=O)Nc3ccc(C(=O)NO)cc3)ccc2c1 [ITF2357]	do not affect	inhibit secretion		HDAC class selectivity (Class I HDACs and HDAC6): selective for Class I HDACs and HDAC6 but not Class IIa; Levels of proinflammatory cytokines [1]: non-specifically reduce
> 10000 nM	> 10000 nM	45 nM	96 nM	5900 nM	> 10000 nM	O=C(CCCCCCNC(=O)c1ccc(C(O)(c2ccccn2)c2ccccn2)cc1)NO [ACY-251]				
						C[C@@H]1NC(=O)[C@H]2CCCN2C(=O)[C@H](CCCCCC(=O)[C@@H]2CO2)NC(=O)[C@@H](C)NC1=O [HC-toxin]	do not affect	inhibit secretion		
						CC(/C=C/C(=O)NO)=C\[C@@H](C)C(=O)c1ccc(N(C)C)cc1 [Trichostatin A]	do not affect	inhibit secretion		
						O=C(CCCCCCC(=O)Nc1ccc([C@H]2O[C@@H](CSc3nc(-c4ccccc4)c(-c4ccccc4)o3)C[C@@H](c3ccc(CO)cc3)O2)cc1)NO [tubacin]	do not affect	inhibit secretion		
						O=C(CCCCCCNC(=O)c1cnc(N(c2ccccc2)c2ccccc2)nc1)NO [ACY-63]				Decrease of severity of disease (average) [2]: 67%
> 10000 nM	> 10000 nM	178 nM	450 nM	8200 nM	> 10000 nM	COC(c1ccc(F)cc1)(c1ccc(F)cc1)c1ccc(C(=O)NCCCCCCC(=O)NO)cc1 [ACY-257]			five of eight	Decrease of severity of disease (average) [2]: 50%; Effect on production of GM-CSF (human PBMCs): significantly decreasing; Effect on production of IL-1β (human PBMCs): significantly decreasing; Effect on production of IL-6 (human PBMCs): significantly decreasing; Effect on production of IL-7 (human PBMCs): no effect; Effect on production of IL-8 (human PBMCs): no effect; Effect on production of IL-10 (human PBMCs): significantly decreasing; Effect on production of MCP-1 (human PBMCs): no effect; Effect on production of TNF-α (human PBMCs): significantly decreasing
						O=C(CCCCCCC(=O)Nc1ccccc1)NO [SAHA, Suberoylanilide hydroxamic acid]	do not affect	inhibit secretion	six out of eight	Levels of proinflammatory cytokines [1]: non-specifically reduce
> 10000 nM	> 10000 nM	57 nM	131 nM	> 10000 nM	> 10000 nM	Cc1ccccc1N(c1ccccc1)c1ncc(C(=O)NCCCCCCC(=O)NO)cn1 [ACY-216]			three of eight	

Structure (SMILES)	IC50 (HDAC4)	IC50 (HDAC7)	IC50 (HDAC1)	IC50 (HDAC2)	IC50 (HDAC5)	IC50 (HDAC9)	Level of synthesis or intracellular localization of the precursors of IL-1β (IL-1β)	Secretion of mature IL-1β (IL-1β)	Number of LPS induced cytokines decreased (of eight) (human PBMCs)	further results
O=C(NO)c1cnc(NC2(c3ccccc3)CC2)nc1 [ACY-738]	1600 nM	1600 nM			882 nM	914 nM				TNFα protein level in supernatant [3]: inhibition; TNFα protein level in supernatant ([3]; listed as ACY-739): decreases; TNFα mRNA level [3]: inhibition; TNFα mRNA level ([3]; listed as ACY-739): decreases

From US20130225543A1, “SPECIFIC REGULATION OF CYTOKINE LEVELS BY HDAC6 INHIBITORS” (Acetylon Pharmaceuticals, priority 2010, published 2013)
